Columns and labels:
[1] = test system: Neonatal Rat Ventricular Myocytes (NRVMs); test: Myocyte proliferation assay (EdU assay) in neonatal rat ventricular myocytes; assay type: cell-based; details: growth relative to blank myocyte growth without compound added; for Avg 1 uM (average myocyte proliferation): compound 1 uM; for Avg 3 uM (average myocyte proliferation): compound 3 uM; for Avg 10 uM (average myocyte proliferation): compound 10 uM
How it was run: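 Neonatal rat ventricular myocytes, fibroblast-depleted by preplating, serum-starved 24 h (2% FBS/ITS), then given compound at 10, 3 or 1 uM in 6% FBS medium for 36 h before 12 h EdU labelling. Fixed cells stained for EdU (Click-iT), ab8295 primary antibody and DAPI; quantified by high-content confocal imaging.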

human CK2a2 (CSNK2a2) = molecular target: T1, human CK2a2 (CSNK2a2) (Homo sapiens, UniProt P19784); test: CK2a2 (CSNK2a2) enzyme assay (ADP-Glo); assay type: biochemical; details: ADP-Glo, ATP 15 μM; read-out: CK2 alpha 2 IC50
T1 construct: Recombinant human CK2a2 (CSNK2a2) (full length); GST (N); purchased SignalChem C71-10G; host or cells: Sf9 insect cells
Experimental: 8. CK2a2 (CSNK2a2) Enzyme Assay
The ability of compounds to inhibit human CK2a2 (CSNK2a2) kinase activities was determined using a commercially available ADP-Glo™ Kinase Assay kit (Promega, Cat #V9102) according to the manufacturer's protocol.
Recombinant human CK2a2 (CSNK2a2) (full length) (expressed in Sf9 insect cells with an N-terminal GST tag) was purchased from SignalChem (Cat #C71-10G). CK2 substrate (sequence: […]) was purchased from SignalChem (Cat #C08-58). This assay, run in a 384-well plate format, is a generic method for measuring kinase activities using an ADP-Glo Kinase Assay Kit. The basic assay procedure involves two steps: (1) Enzymatic step: inhibitors are incubated with the kinase and then ATP (included in the ADP-Glo Kinase Assay Kit) and the MBP protein are added to start the enzymatic reaction; (2) Detection step: after the kinase reaction, first ADP-Glo™ Reagent is added to terminate the kinase reaction and deplete the remaining ATP. Second, the Kinase Detection Reagent is added to simultaneously convert ADP to ATP and allow the newly synthesized ATP to be measured using a luciferase/luciferin reaction. The light generated is measured using a luminometer.
Briefly, CK2a2 (CSNK2a2) (7 nM) in the enzymatic buffer solutions (40 mM Tris, pH 7.5, 20 mM MgCl2, 0.1 mg/ml BSA, 50 μM DTT) were mixed with various concentrations of inhibitors (dissolved in 100% DMSO). These solutions were incubated for 30 minutes at 25° C., and subsequently a mixture of substrate peptide and ATP was added with the final peptide and ATP concentrations at 0.04 mg/ml and 15 μM, respectively. The final reaction mixture of enzyme-substrate-ATP-compound was incubated for 90 minutes at 25° C.
Afterwards ADP-Glo™ Reagent was added and the mixture was incubated at 25° C. for 60 minutes. Then Kinase Detection Reagent was added, and the final mixture was incubated at 25° C. for 60 minutes. The luminescence signal of the final solution was measured on an Envision instrument (PerkinElmer). The percent (%) inhibition at each concentration of a compound is calculated relative to the luminescence signal in the Max and Min control wells contained within each assay plate. […] The concentrations and percent inhibition values for a test compound are plotted and the concentration of the compound required to achieve 50% inhibition (IC50) is determined with a four-parameter logistic dose response equation.

T1 sequence (P19784 whole entry): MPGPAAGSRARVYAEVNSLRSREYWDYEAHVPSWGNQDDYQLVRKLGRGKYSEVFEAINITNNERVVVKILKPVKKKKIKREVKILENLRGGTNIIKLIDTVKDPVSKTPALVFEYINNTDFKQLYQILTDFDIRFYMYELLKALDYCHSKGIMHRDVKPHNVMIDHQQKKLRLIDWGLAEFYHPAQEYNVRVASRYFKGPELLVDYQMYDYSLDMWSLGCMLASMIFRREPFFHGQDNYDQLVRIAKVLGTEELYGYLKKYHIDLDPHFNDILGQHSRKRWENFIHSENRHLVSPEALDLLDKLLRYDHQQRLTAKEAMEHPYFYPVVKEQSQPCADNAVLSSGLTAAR

SMILES | Avg 1 uM (average myocyte proliferation) [1] | Avg 3 uM (average myocyte proliferation) [1] | Avg 10 uM (average myocyte proliferation) [1] | IC50 (human CK2a2 (CSNK2a2))
O=C1NC(N(Cc2ccccc2)c2ccccc2)=N/C1=C\c1ccc2c(c1)OCO2 [Example 22, (Z)-5-(benzo[d][1,3]dioxol-5-ylmethylene)-2-(benzyl(phenyl)amino)-3,5-dihydro-4H-imidazol-4-one] | ** (10%-50%) | ** (10%-50%) | ** (10%-50%) | > 10000 nM
CN(Cc1ccccc1)C1=N/C(=C\c2ccc3c(c2)OCO3)C(=O)N1 [Example 23, (Z)-5-(benzo[d][1,3]dioxol-5-ylmethylene)-2-(benzyl(methyl)amino)-3,5-dihydro-4H-imidazol-4-one] | ** (10%-50%) | ** (10%-50%) | ** (10%-50%) | > 10000 nM
CN(C1=N/C(=C\c2ccc3c(c2)OCO3)C(=O)N1)c1ccc(N)cc1 [Example 37, (Z)-2-((4-aminophenyl)(methyl)amino)-5-(benzo[d][1,3]dioxol-5-ylmethylene)-3,5-dihydro-4H-imidazol-4-one] | *** (>50%) | ** (10%-50%) | ** (10%-50%) | 100 to 1000 nM
COc1ccc(N(C)C2=N/C(=C\c3ccc4ncsc4c3)C(=O)N2)cc1 [Example 38, (Z)-5-(benzo[d]thiazol-6-ylmethylene)-2-((4-methoxyphenyl)(methyl)amino)-3,5-dihydro-4H-imidazol-4-one] | *** (>50%) | ** (10%-50%) | *** (>50%) | 100 to 1000 nM
O=C1NC(Nc2ccc(Cl)cc2)=N/C1=C\c1ccc2ncsc2c1 [Example 40, (Z)-5-(benzo[d]thiazol-6-ylmethylene)-2-((4-chlorophenyl)amino)-3,5-dihydro-4H-imidazol-4-one] | *** (>50%) | *** (>50%) | *** (>50%) | > 10000 nM
O=C1/C(=C/c2ccc3ncsc3c2)N=C(N(Cc2ccccc2)c2ccccc2)N1Cc1ccccc1 [Example 42, (Z)-5-(benzo[d]thiazol-6-ylmethylene)-3-benzyl-2-(benzyl(phenyl)amino)-3,5-dihydro-4H-imidazol-4-one] | ** (10%-50%) | ** (10%-50%) | *** (>50%) | > 10000 nM
CN(C1=N/C(=C\c2ccc3ncsc3c2)C(=O)N1)c1ccc(N)cc1 [Example 44, (Z)-2-((4-aminophenyl)(methyl)amino)-5-(benzo[d]thiazol-6-ylmethylene)-3,5-dihydro-4H-imidazol-4-one] | *** (>50%) | ** (10%-50%) | ** (10%-50%) | 100 to 1000 nM
CC(C)NC1=N/C(=C\c2ccc3ncsc3c2)C(=O)N1C [Example 45, (Z)-5-(benzo[d]thiazol-6-ylmethylene)-2-(isopropylamino)-3-methyl-3,5-dihydro-4H-imidazol-4-one] | ** (10%-50%) | ** (10%-50%) | ** (10%-50%) | 1000 to 10000 nM
Cn1cnc2ccc(/C=C3\N=C(Nc4ccccc4)NC3=O)cc21 [Example 46, (Z)-5-((1-methyl-1H-benzo[d]imidazol-6-yl)methylene)-2-(phenylamino)-3,5-dihydro-4H-imidazol-4-one] | *** (>50%) | ** (10%-50%) | *** (>50%) | < 100 nM
O=C1NC(Nc2ccc3ncsc3c2)=N/C1=C\c1ccc2c(c1)OCO2 [Example 47, (Z)-5-(benzo[d][1,3]dioxol-5-ylmethylene)-2-(benzo[d]thiazol-6-ylamino)-3,5-dihydro-4H-imidazol-4-one] | *** (>50%) | *** (>50%) | *** (>50%) | > 10000 nM
O=C1NC(Nc2ccc3ncsc3c2)=N/C1=C\c1ccc2ncsc2c1 [Example 48, (Z)-2-(benzo[d]thiazol-6-ylamino)-5-(benzo[d]thiazol-6-ylmethylene)-3,5-dihydro-4H-imidazol-4-one] | *** (>50%) | *** (>50%) | *** (>50%) | < 100 nM
O=C1NC(Nc2ccccc2)=N/C1=C\c1ccc2occc2c1 [Example 52, (Z)-5-(benzofuran-5-ylmethylene)-2-(phenylamino)-3,5-dihydro-4H-imidazol-4-one] | ** (10%-50%) | ** (10%-50%) | ** (10%-50%) | > 10000 nM
O=C1NC(Nc2ccccc2)=N/C1=C\c1ccc2ncccc2c1 [Example 53, (Z)-2-(phenylamino)-5-(quinolin-6-ylmethylene)-3,5-dihydro-4H-imidazol-4-one] | ** (10%-50%) | *** (>50%) | ** (10%-50%) | > 10000 nM
CN(C1=N/C(=C\c2ccc3c(c2)OCO3)C(=O)N1)c1ccc2ncsc2c1 [Example 70, (Z)-5-(benzo[d][1,3]dioxol-5-ylmethylene)-2-(benzo[d]thiazol-6-yl(methyl)amino)-3,5-dihydro-4H-imidazol-4-one] | ** (10%-50%) | ** (10%-50%) | – | 100 to 1000 nM
O=C1NC(Nc2ccc3nccnc3c2)=N/C1=C\c1ccc2ncsc2c1 [Example 82, (Z)-5-(benzo[d]thiazol-6-ylmethylene)-2-(quinoxalin-6-ylamino)-3,5-dihydro-4H-imidazol-4-one] | ** (10%-50%) | ** (10%-50%) | – | < 100 nM
CN(C1=N/C(=C\c2ccc3ncsc3c2)C(=O)N1)c1ccc2ncsc2c1 [Example 83, (Z)-2-(benzo[d]thiazol-6-yl(methyl)amino)-5-(benzo[d]thiazol-6-ylmethylene)-3,5-dihydro-4H-imidazol-4-one] | ** (10%-50%) | ** (10%-50%) | – | 100 to 1000 nM
CN(C1=N/C(=C\c2ccc3c(c2)OCCO3)C(=O)N1)c1ccc2ncsc2c1 [Example 84, (Z)-2-(benzo[d]thiazol-6-yl(methyl)amino)-5-((2,3-dihydrobenzo[b][1,4]dioxin-6-yl)methylene)-3,5-dihydro-4H-imidazol-4-one] | * (<10% growth relative to blank myocyte growth without compound added.) | ** (10%-50%) | – | 100 to 1000 nM
NC1=N/C(=C\c2ccc3ncsc3c2)C(=O)N1 [Example 103, (Z)-2-amino-5-(benzo[d]thiazol-6-ylmethylene)-3,5-dihydro-4H-imidazol-4-one] | ** (10%-50%) | ** (10%-50%) | – | 100 to 1000 nM

From patent US12643887B2, “Heterocyclic derivatives with cardiomyocyte proliferation activity for treatment of heart diseases” (Tongji University, priority 2019, dated 2026)
